Experimental data reported in patent US10710951B2, “Pharmaceutical composition containing verbenone derivative for treating or preventing neurodegenerative disease” (KOREA UNIVERSITY RESEARCH AND BUSINESS FOUNDATION, priority 2012, dated 2020).

Experiments:
[1] = DPPH assay (ability to scavenge nitrogen radicals); parameters: DPPH assay % inhibition: concentration or dose not given beside the values
Protocol: The samples were mixed with DPPH (23.6 μg/ml, in ethanol), and incubated in dark at 37° C. for 30 minutes. The DPPH absorbance reduced by each sample was measured at 517 nm. Vitamin C (Sigma-Aldrich, St. Louis, Mo.) was used as a control, and the DPPH inhibition value (%) was calculated using the following equation: Scavenging activity (%)=[Absmax(Vit.C)−Abssample]/[Absmax(Vit.C)−Absmin(Vit.C)]×100. Equation 1
The antioxidant activities of the verbenone derivatives of the present invention were measured by the following two different chemical reactions: (1) a single electron transfer-based assay that is a […] [DPPH] assay that measures a decrease in DPPH acting as a free radical generator and a termination probe; and (2) a hydrogen atom transfer assay that is an oxygen radical absorbance capacity [[…]] assay that measures the competitive reaction kinetics of a peroxyl radical generator (AAPH; 2,2′-azobis-(2-methylpropionamide)-dihydrochloride) and each sample acting as an antioxidant for oxidizable fluorescent probe (fluorescein).

[2] = tested on: cortical neurons; experiment: NMDA-induced excitotoxicity, LDH release; format: cell-based, SD rats; parameters: dose or concentration left out as unconfirmed; details: cultured cortical neuronal cells; sample 30 min before NMDA; lower than MK-801; FIG. 2
Protocol: Cortical neurons (5×10^5 cells/ml) were isolated from fetal SD rats (16-17 days). Specifically, brain cortex was cut, and cells were isolated from the tissue by repeated trituration using a Pasteur pipette in buffer (Hanks' Balanced Salt Solution, HBSS). The cell suspension (1.8×10^3 cells/mm^2) was dispensed on a plate pretreated with poly-D-lysine ([…])/laminin ([…]). The cells were placed in 10% FBS-containing NBM medium, and incubated in a […]/5% CO2 atmosphere at 37° C. After 15-16 days of the incubation, the experiment was performed.
After incubation on the plate for 15-18 days, the cortical neurons were exposed to NMDA ([…]) in a solution (Mg^2+-free Earle's balanced salt solution (EBSS); containing 1.8 mM CaCl2 and 10 mM glycine) for 10 minutes. After exposure, the cells were washed with MgSO4-containing EBSS solution, and incubated in 25 mmol/L glucose-containing DMEM medium in a 5% CO2 incubator at 37° C. 30 Minutes before treatment with NMDA, the cells were treated with each sample […].
In order to measure cell injury or cell death, the amount of LDH released into the medium was measured using a cell viability measurement kit (Sigma-Aldrich, St. Louis, Mo.). Cell viability was expressed as the percentage of LDH relative to the total cellular LDH level measured in sister cultures lysed by freezing-thawing after the experiment.

[3] = tested on: focal cerebral ischemia (MCAO) rats; experiment: Focal cerebral ischemia model (MCAO); format: in vivo, SD rats; details: transient ischemia rat; 50 mg/kg intraperitoneal, twice (2 hours and 7 hours after brain infarction); FIG. 4
Protocol: Rats were anesthetized with 3.0% isoflurane in N2O and O2 (70:30 v/v) mixture via facemask and were maintained in 2% isoflurane. Throughout the experimental period, the body temperature was controlled and kept to 37° C.±0.3° C. using a rectal thermometer and a heating pad until the animals were sufficiently recovered from anesthesia after surgery. Focal cerebral ischemia was achieved by right-sided endovascular MCAO. Briefly, a 3-0 heat-blunted monofilament nylon suture (Ethicon Johnson & Johnson, Brussels, Belgium) were inserted into the lumen of the right external carotid artery stump and advanced 17.5 mm into the internal carotid artery to occlude the ostium of the MCA. The suture was removed after 1.5 hours to allow animals to recover. Operated controls were subjected to the same surgical procedures, except for MCAO. Physiological values were measured 15 minutes before MCAO and at 15 minutes after reperfusion, and mean blood pressure was monitored for 5 minutes using a blood pressure analyzer (MicroMed, Lousville, Ky.), and glucose were monitored using an analyzer (Ciba Corning Diagnostics Corp., Medfield, Mass.). […]
Rats were anesthetized with 3.5% chloral hydrate (5 ml/kg, intraperitoneal injection) and decapitated. […] The cross-sectional area of infarction between the bregma levels of +4 mm (anterior) and −6 mm (posterior) were determined with analysis software (OPTIMAS5.1 image analysis program, BioScanInc. Edmonds, Wash.). Brain infarct size was measured manually by outlining the margins of infarct areas. The total infarction volume (mm^3) was calculated according to the following equation 5 as disclosed in a document (J Neurosci Methods (1998) 84:9-16; J Cereb Blood Flow Metab (1990) 10:290-293), and compensated for brain edema. Cerebral edema was determined by the percent increase of the ipsilateral/contralateral hemisphere area as shown in the following equation 6. […]

In the case of `COc1cc(C=CC2=CC(=O)[C@H]3C[C@@H]2C3(C)C)cc(O)c1O` [Compound 3f, (1S,5R)-4-(3,4-dihydroxy-5-methoxystyryl)-6,6-dimethylbicyclo[3.1.1]hept-3-en-2-one], the “DPPH scavenging activity (in words)” value ([1]; compared to vitamin C at the same concentration) is reported as “stronger scavenging activity compared to vitamin C”, the “DPPH assay % inhibition” value ([1]; relative to vitamin C (Equation 1)) is reported as 83.64 ± 6.19% and the NMDA-induced neuronal injury [2] is reported as “significantly reduced NMDA-induced neuronal injury”. For the same compound, the cerebral edema [3] was “significantly reduced”, the ischemic injury [3] was “significantly reduced” and the neurological deficit [3] was “significantly reduced”.
